Assay results reported in EP0588622B1, “Bleach composition” (UNILEVER PLC, priority 1992, dated 1994).
Where two headings read alike, the source gives them in different places.

Columns and labels:
[1] = pKa determination by sodium hydroxide titration of peroxyacid solution
[2] = peroxyacid solution 0.000525 moles/l plus EDTA, 22-24°C, 30 minutes
[3] = Stain bleaching, visual assessment of stained cloths after tergotometer wash (Example V); details: for Ranking: score 1 smallest, 4 greatest cleaning benefit, peroxyacid 9.2x10^-4 mol l^-1, 40°C, 30 minutes
[4] = Tea stain bleaching, difference in reflectance at 460 nm before and after washing (Example VI); details: 40°C, 30 minutes
Protocol: The stain bleaching performance was measured by determining the difference ([…]) in %reflectance of cloths at 460 nm before and after washing. […] This was carried out in a tergotometer at 40°C, washing for 30 minutes. Cloths were washed in 450 ml 18°FH water with 1.8 g NSPA base powder and peroxyacid included at 9.2x10^-4 mol l^-1. Two series of experiments were carried out; one at pH 6 where the peracid is largely in its undissociated form and one above the peracid pKa, at pH 9. A stained piece of fabric measuring 8x8 cm was cut into four such that each quarter would be washed under one of each of the four experimental conditions. The method as in example V was used in determining the tea stain bleaching effect of sterically hindered hydrophobic peroxyacids, the differences being that 3 replicates were used, the reflectance was measured before and after washing, tests were done over a pH range of from 6 to 10 and 4 g/l NSPA base powder was used.

[5] = Dye damage in tergotometer wash at pH 9 (Example VII), diacetate; details: diacetate dyed with CI disperse 14; pH 9, 40°C, 30 minutes, peroxyacid 9.2x10^-4 mole/l
[6] = Dye damage in tergotometer wash at pH 9 (Example VII), triacetate; details: triacetate dyed with CI disperse 14; pH 9, 40°C, 30 minutes, peroxyacid 9.2x10^-4 mole/l
[7] = Dye damage in tergotometer wash at pH 9 (Example VII), nylon 6,6; details: nylon 6,6 dyed with CI disperse 14; pH 9, 40°C, 30 minutes, peroxyacid 9.2x10^-4 mole/l
[8] = Dye damage in tergotometer wash with detergent base at pH 6 to 10 (Example III); details: peroxyacid 9.2x10^-4 mole/l, detergent base 4 g/l, 40°C, 30 minutes
[9] = physchem

Compound: CC1(C(=O)OO)CC2CCC1C2 (stereo not drawn) [2 methylnorbornane-endo-2-percaboxylic]
- pKa [1]: 8.2
- % dye damage [2]: 5.6%

Compound: O=C(OO)C1CC2CCC1C2 (centres unmarked) [NBC, Norbornane 2-peroxyacid]
- Ranking ([3]; Washes at pH 9): 2
- Ranking ([3]; Washes pH 6): 2

Compound: O=C(OO)C1CC2CCC1C2 (stereo not drawn) [Norbornane-endo-2-Percarboxylic]
- pKa [1]: 8.15
- % dye damage [2]: 7.0%

Compound: O=C(OO)C12CC3CC(CC(C3)C1)C2 [Peradamantoic, Peradamantoic acid]
- pKa [1]: 7.95
- TEA STAIN BLEACHING ΔR460NM ([4]; pH 6, 4 g/l NSPA base powder): 13.2
- TEA STAIN BLEACHING ΔR460NM ([4]; pH 7, 4 g/l NSPA base powder): 16.9
- TEA STAIN BLEACHING ΔR460NM ([4]; pH 8, 4 g/l NSPA base powder): 17.3
- TEA STAIN BLEACHING ΔR460NM ([4]; pH 9, 4 g/l NSPA base powder): 13.1
- TEA STAIN BLEACHING ΔR460NM ([4]; pH 10, 4 g/l NSPA base powder): 3.6
- % dye damage [2]: 11.2%
- Ranking ([3]; Washes at pH 9): 4
- Ranking ([3]; Washes pH 6): 4
- removal of the stain ([3]; black biro stain, both at pH 6 and 9): almost complete removal of the stain

Compound: CC1C2CCC(C2)C1C(=O)OO (stereo not drawn) [Trans-3-Methyl norbornane-endo-2-percaboxylic]
- pKa [1]: 8.15
- % dye damage [2]: 8.2%

Compound: CC(CC(=O)OO)CC(C)(C)C (centres unmarked) [iso-pernonanoic, peroxy-3,5,5-trimethylhexanoic acid]
- pKa [1]: 8.1
- % dye damage [5]: 25%
- % dye damage [6]: 23%
- % dye damage [7]: 11%

Compound: CCCCCCCCC(=O)OO [n-pernonanoic, n-pernonanoic acid]
- % DYE DAMAGE ([8]; pH 6): 70.4%
- % DYE DAMAGE ([8]; pH 7): 67.9%
- % DYE DAMAGE ([8]; pH 8): 63.7%
- % DYE DAMAGE ([8]; pH 9): 37.2%
- % DYE DAMAGE ([8]; pH 10): 15.0%
- pKa [1]: 8.1
- % dye damage [5]: 82%
- % dye damage [6]: 85%
- % dye damage [7]: 52%

Compound: CCCCc1ccc(C(=O)OO)cc1 [p-bu^n perbenzoic, reference compound]
- pKa [1]: 8
- % dye damage [2]: 39.6%

Compound: CC(C)(C)c1ccc(C(=O)OO)cc1 [p-bu^t perbenzoic, p-t-butylperbenzoic acid]
- pKa [9]: 7.98
- % dye damage [2]: 19.6%
